Measured values reported in US20060069132A1, “Azolecarboxamide herbicides” (priority 2004, published 2006).

Assays:
blackgrass = test: Test B postemergence herbicide test; type: in vivo, Alopecurus myosuroides; details: postemergence, visual rating, scale 0 (no effect) to 100 (complete control)
How it was run: (§1)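 Treated at 2-leaf (paddy) or 1–4-leaf, 2–18 cm (postemergence); greenhouse 13–15 d; visual score vs control, 0 none to 100 complete control; dash = not tested.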

wheat = test: Test B postemergence herbicide test; type: in vivo, Triticum aestivum; design: key to Wheat plant response rating: 0 = no effect, 100 = complete control; details: postemergence, 500 g ai/ha; visual rating, scale 0 (no effect) to 100 (complete control)
How it was run: as §1

giant foxtail [1] = test: Test B pre-/postemergence herbicide test; type: in vivo, Setaria faberi; details: for Plant response rating, Foxtail, Giant: preemergence; for Foxtail, Giant plant response rating: postemergence, visual rating, scale 0 (no effect) to 100 (complete control)
How it was run: (§2)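 Response was scored visually 13 to 15 days after treatment against untreated greenhouse controls, 0 meaning no effect and 100 complete control. Formulations (solvent mixture plus surfactant) went onto soil after planting, onto foliage of 1- to 4-leaf plants, and onto 2-leaf plants in a flooded paddy set including rice and barnyardgrass.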

redroot pigweed = test: Test A pre-/postemergence herbicide test; type: in vivo, Amaranthus retroflexus
How it was run: (§3)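 Visual injury rating on a 0–100 scale (0 no effect, 100 complete control) versus untreated controls, about ten days after treatment in greenhouse. Pre: directed soil spray onto seeded sandy loam. Post: spray to runoff on plants 2–10 cm tall at one- to two-leaf stage.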

barnyardgrass [2] = test: Test B flooded paddy test; type: in vivo, Echinochloa crus-galli; details: 1000 g ai/ha, visual rating, scale 0 to 100 (0 no effect, 100 complete control), 13 to 15 days
How it was run: as §1

pigweed = test: Test B pre-/postemergence herbicide test; type: in vivo, Amaranthus retroflexus; details: for Plant response rating, Pigweed: preemergence; for Pigweed plant response rating: postemergence, visual rating, scale 0 (no effect) to 100 (complete control)
How it was run: as §2

lambsquarters = test: Test B pre-/postemergence herbicide test; type: in vivo, Chenopodium album; details: for Lambsquarters plant response rating: postemergence, visual rating, scale 0 (no effect) to 100 (complete control)
How it was run: as §2

rice [3] = test: Test B pre-/postemergence herbicide test; type: in vivo, Oryza sativa; details: preemergence
How it was run: as §2

wild oat = test: Test B postemergence herbicide test; type: in vivo, Avena fatua; details: postemergence, visual rating, scale 0 (no effect) to 100 (complete control)
How it was run: as §1

velvetleaf [4] = test: Test A pre-/postemergence herbicide test; type: in vivo, Abutilon theophrasti
How it was run: as §3

ducksalad = test: Test B flooded paddy test; type: in vivo, Heteranthera limosa; details: 1000 g ai/ha, visual rating, scale 0 to 100 (0 no effect, 100 complete control), 13 to 15 days
How it was run: as §1

barnyardgrass [5] = test: Test B pre-/postemergence herbicide test; type: in vivo, Echinochloa crus-galli; details: for Plant response rating, Barnyardgrass: preemergence; for Barnyardgrass plant response rating: postemergence, visual rating, scale 0 (no effect) to 100 (complete control)
How it was run: (§4)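 Herbicidal effect was judged by eye on a 0–100 scale after plants stood 13 to 15 days in the greenhouse following pre- or postemergence treatment with surfactant-containing formulations.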

Surinam grass = test: Test B pre-/postemergence herbicide test; type: in vivo, Urochloa decumbens; details: for Plant response rating, Surinam Grass: preemergence; for Surinam Grass plant response rating: postemergence, visual rating, scale 0 (no effect) to 100 (complete control)
How it was run: as §2

morningglory [6] = test: Test B pre-/postemergence herbicide test; type: in vivo, Ipomoea coccinea; details: for Plant response rating, Morningglory: preemergence; for Morningglory plant response rating: postemergence, visual rating, scale 0 (no effect) to 100 (complete control)
How it was run: as §4

barnyardgrass [7] = test: Test A pre-/postemergence herbicide test; type: in vivo, Echinochloa crus-galli
How it was run: as §3

[8] = system: small flower umbrella sedge; test: Test B flooded paddy test; type: in vivo, Cyperus difformis; details: 1000 g ai/ha, visual rating, scale 0 to 100 (0 no effect, 100 complete control), 13 to 15 days
How it was run: as §1

velvetleaf [9] = test: Test B pre-/postemergence herbicide test; type: in vivo, Abutilon theophrasti; details: for Plant response rating, Velvetleaf: preemergence; for Velvetleaf plant response rating: postemergence, visual rating, scale 0 (no effect) to 100 (complete control)
How it was run: as §2

corn = test: Test B pre-/postemergence herbicide test; type: in vivo, Zea mays; details: for Plant response rating, Corn: preemergence; for Corn plant response rating: postemergence, visual rating, scale 0 (no effect) to 100 (complete control)
How it was run: as §2

large crabgrass [10] = test: Test B pre-/postemergence herbicide test; type: in vivo, Digitaria sanguinalis; details: for Plant response rating, Crabgrass, Large: preemergence; for Crabgrass, Large plant response rating: postemergence, visual rating, scale 0 (no effect) to 100 (complete control)
How it was run: as §2

giant foxtail [11] = test: Test A pre-/postemergence herbicide test; type: in vivo, Setaria faberi
How it was run: as §3

rice [12] = test: Test B flooded paddy test; type: in vivo, Oryza sativa; details: 1000 g ai/ha, visual rating, scale 0 to 100 (0 no effect, 100 complete control), 13 to 15 days
How it was run: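 Postemergence plants were sprayed with formulated test chemicals at 2 to 18 cm height (1- to 4-leaf stage); paddy species were grown to the 2-leaf stage. After 13 to 15 days in a greenhouse, injury was rated visually against untreated controls on a 0–100 scale (0 = no effect, 100 = complete control).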

cocklebur = test: Test B pre-/postemergence herbicide test; type: in vivo, Xanthium strumarium; details: for Plant response rating, Cocklebur: preemergence; for Cocklebur plant response rating: postemergence, visual rating, scale 0 (no effect) to 100 (complete control)
How it was run: as §4

large crabgrass [13] = test: Test A pre-/postemergence herbicide test; type: in vivo, Digitaria sanguinalis
How it was run: as §3

morningglory [14] = test: Test A pre-/postemergence herbicide test; type: in vivo, Ipomoea spp.
How it was run: as §3

[15] = 500 g ai/ha, visual rating 0-100, 0 no effect, 100 complete control
[16] = 125 g ai/ha, 0 to 100 scale, 0 is no effect, 100 is complete control
[17] = Postemergence, 500 g ai/ha, 0 to 100 scale, 0 no effect, 100 complete control
[18] = Postemergence, 2000 g ai/ha, 0 to 100 scale, 0 no effect, 100 complete control
[19] = Preemergence, 2000 g ai/ha, visual rating, 0 to 100 scale (0 no effect, 100 complete control)
[20] = preemergence, 500 g ai/ha, visual injury, 0 to 100 scale (0 no effect, 100 complete control)
[21] = Preemergence, 500 g ai/ha, visual rating, 0 to 100 scale (0 no effect, 100 complete control)

CCn1nc(C(C)(C)C)cc1C(=O)Nc1cc(C(=O)OC)cc(C)n1 [Compound 148]
15: Plant response rating, Pigweed (redroot pigweed; [18]) | Plant response rating, Velvetleaf (velvetleaf [4]; [18]) | Foxtail, Giant plant response rating (giant foxtail [11]; [17]) | Plant response rating, Foxtail, Giant (giant foxtail [11]; [18]) | Crabgrass, Large plant response rating (large crabgrass [13]; [19]) | Morningglory plant response rating (morningglory [14]; [17])
5: Crabgrass, Large plant response rating (large crabgrass [13]; [17]) | Morningglory plant response rating (morningglory [14]; [19])
0: Blackgrass plant response rating (blackgrass; 125 g ai/ha) | Blackgrass plant response rating (blackgrass; 500 g ai/ha) | Plant response rating, Foxtail, Giant (giant foxtail [1]; [16]) | Pigweed plant response rating (redroot pigweed; [17]) | Pigweed plant response rating (redroot pigweed; [20]) | Plant response rating, Pigweed (pigweed; [15]) | Plant response rating, Pigweed (pigweed; [16]) | Plant response rating, Lambsquarters (lambsquarters; preemergence, 125 g ai/ha, 0 to 100 scale, 0 is no effect, 100 is complete control) | Plant response rating, Rice (rice [3]; [16]) | Velvetleaf plant response rating (velvetleaf [4]; [20]) | Ducksalad plant response rating (ducksalad) | Barnyardgrass plant response rating (barnyardgrass [5]; 125 g ai/ha) | Plant response rating, Barnyardgrass (barnyardgrass [5]; [16]) | Plant response rating, Surinam Grass (Surinam grass; [15]) | Plant response rating, Surinam Grass (Surinam grass; [16]) | Plant response rating, Morningglory (morningglory [6]; [15]) | Plant response rating, Morningglory (morningglory [6]; [16]) | Barnyardgrass plant response rating (barnyardgrass [7]; [21]) | Plant response rating, Velvetleaf (velvetleaf [9]; [15]) | Plant response rating, Velvetleaf (velvetleaf [9]; [16]) | Plant response rating, Corn (corn; [15]) | Plant response rating, Corn (corn; [16]) | Plant response rating, Crabgrass, Large (large crabgrass [10]; [15]) | Plant response rating, Crabgrass, Large (large crabgrass [10]; [16]) | Foxtail, Giant plant response rating (giant foxtail [11]; [21]) | Rice plant response rating (rice [12]) | Plant response rating, Cocklebur (cocklebur; [15]) | Plant response rating, Cocklebur (cocklebur; [16]) | Crabgrass, Large plant response rating (large crabgrass [13]; [21]) | Morningglory plant response rating (morningglory [14]; [21])
70: Sedge, Umbrella plant response rating [8] | Cocklebur plant response rating (cocklebur; 500 g ai/ha)
30: Wheat plant response rating (wheat)
10: Foxtail, Giant plant response rating (giant foxtail [1]; 125 g ai/ha) | Foxtail, Giant plant response rating (giant foxtail [1]; 500 g ai/ha) | Pigweed plant response rating (pigweed; 125 g ai/ha) | Lambsquarters plant response rating (lambsquarters; 125 g ai/ha) | Lambsquarters plant response rating (lambsquarters; 500 g ai/ha) | Plant response rating, Rice (rice [3]; [15]) | Oat, Wild plant response rating (wild oat; 125 g ai/ha) | Oat, Wild plant response rating (wild oat; 500 g ai/ha) | Velvetleaf plant response rating (velvetleaf [4]; [19]) | Plant response rating, Barnyardgrass (barnyardgrass [5]; [15]) | Surinam Grass plant response rating (Surinam grass; 125 g ai/ha) | Surinam Grass plant response rating (Surinam grass; 500 g ai/ha) | Morningglory plant response rating (morningglory [6]; 125 g ai/ha) | Morningglory plant response rating (morningglory [6]; 500 g ai/ha) | Velvetleaf plant response rating (velvetleaf [9]; 125 g ai/ha) | Velvetleaf plant response rating (velvetleaf [9]; 500 g ai/ha) | Corn plant response rating (corn; 125 g ai/ha) | Corn plant response rating (corn; 500 g ai/ha) | Crabgrass, Large plant response rating (large crabgrass [10]; 125 g ai/ha) | Crabgrass, Large plant response rating (large crabgrass [10]; 500 g ai/ha) | Foxtail, Giant plant response rating (giant foxtail [11]; [19]) | Plant response rating, Crabgrass, Large (large crabgrass [13]; [18]) | Plant response rating, Morningglory (morningglory [14]; [18])
20: Plant response rating, Foxtail, Giant (giant foxtail [1]; [15]) | Barnyardgrass plant response rating (barnyardgrass [2]) | Pigweed plant response rating (pigweed; 500 g ai/ha) | Velvetleaf plant response rating (velvetleaf [4]; [17]) | Barnyardgrass plant response rating (barnyardgrass [5]; 500 g ai/ha) | Barnyardgrass plant response rating (barnyardgrass [7]; [17]) | Barnyardgrass plant response rating (barnyardgrass [7]; [19]) | Cocklebur plant response rating (cocklebur; 125 g ai/ha)
25: Pigweed plant response rating (redroot pigweed; [19]) | Plant response rating, Barnyardgrass (barnyardgrass [7]; [18])
